Data: ChEMBL document CHEMBL4138146, “A Schmidt rearrangement-mediated synthesis of novel tetrahydro-benzo[1,4]diazepin-5-ones as potential anticancer and antiprotozoal agents” (Eur J Med Chem, 2017)
In brackets after ≈: the same amount, converted by molar mass.

What was measured:
[1] = tested on: SK-MEL-2; test: Growth inhibition of human SK-MEL-2 cells incubated for 48 hrs by sulforhodamine B assay; type: functional; conditions: SK-MEL-2, 48 h; for CC50: read-out: LC50 (the source's name)
[2] = tested on: OVCAR-5; test: Growth inhibition of human OVCAR5 cells incubated for 48 hrs by sulforhodamine B assay; type: functional; conditions: OVCAR-5, 48 h; for CC50: read-out: LC50 (the source's name)
[3] = tested on: HL-60(TB); test: Growth inhibition of human HL-60(TB) cells assessed as cell growth at 10 uM incubated for 48 hrs by sulforhodamine B assay relative to control; type: functional; conditions: HL-60, 48 h, read-out: Activity
[4] = tested on: K562; test: Growth inhibition of human K562 cells assessed as cell growth at 10 uM incubated for 48 hrs by sulforhodamine B assay relative to control; type: functional; conditions: K562, 48 h, read-out: Activity
[5] = tested on: SR; test: Growth inhibition of human SR cells assessed as cell growth at 10 uM incubated for 48 hrs by sulforhodamine B assay relative to control; type: functional; conditions: read-out: Activity
[6] = tested on: A549; test: Growth inhibition of human A549/ATCC cells assessed as cell growth at 10 uM incubated for 48 hrs by sulforhodamine B assay relative to control; type: functional; conditions: A549, 48 h, read-out: Activity
[7] = tested on: EKVX; test: Growth inhibition of human EKVX cells assessed as cell growth at 10 uM incubated for 48 hrs by sulforhodamine B assay relative to control; type: functional; conditions: read-out: Activity
[8] = tested on: HCT-15; test: Growth inhibition of human HCT15 cells assessed as cell growth at 10 uM incubated for 48 hrs by sulforhodamine B assay relative to control; type: functional; conditions: HCT-15, 48 h, read-out: Activity
[9] = tested on: SF-295; test: Growth inhibition of human SF295 cells assessed as cell growth at 10 uM incubated for 48 hrs by sulforhodamine B assay relative to control; type: functional; conditions: SF-295, 48 h, read-out: Activity
[10] = tested on: SF-539; test: Growth inhibition of human SF539 cells assessed as cell growth at 10 uM incubated for 48 hrs by sulforhodamine B assay relative to control; type: functional; conditions: SF-539, 48 h, read-out: Activity
[11] = tested on: SNB-19; test: Growth inhibition of human SNB19 cells assessed as cell growth at 10 uM incubated for 48 hrs by sulforhodamine B assay relative to control; type: functional; conditions: SNB-19, 48 h, read-out: Activity
[12] = tested on: Malme-3M; test: Growth inhibition of human MALME-3M cells assessed as cell growth at 10 uM incubated for 48 hrs by sulforhodamine B assay relative to control; type: functional; conditions: read-out: Activity
[13] = tested on: M14; test: Growth inhibition of human M14 cells assessed as cell growth at 10 uM incubated for 48 hrs by sulforhodamine B assay relative to control; type: functional; conditions: M14, 48 h, read-out: Activity
[14] = tested on: MDA-MB-435; test: Growth inhibition of human MDA-MB-435 cells assessed as cell growth at 10 uM incubated for 48 hrs by sulforhodamine B assay relative to control; type: functional; conditions: MDA-MB-435, 48 h, read-out: Activity
[15] = tested on: SK-MEL-28; test: Growth inhibition of human SK-MEL-28 cells assessed as cell growth at 10 uM incubated for 48 hrs by sulforhodamine B assay relative to control; type: functional; conditions: SK-MEL-28, 48 h, read-out: Activity
[16] = tested on: UACC-62; test: Growth inhibition of human UACC62 cells assessed as cell growth at 10 uM incubated for 48 hrs by sulforhodamine B assay relative to control; type: functional; conditions: UACC-62, 48 h, read-out: Activity
[17] = tested on: OVCAR-3; test: Growth inhibition of human OVCAR3 cells assessed as cell growth at 10 uM incubated for 48 hrs by sulforhodamine B assay relative to control; type: functional; conditions: OVCAR-3, 48 h, read-out: Activity
[18] = tested on: OVCAR-4; test: Growth inhibition of human OVCAR4 cells assessed as cell growth at 10 uM incubated for 48 hrs by sulforhodamine B assay relative to control; type: functional; conditions: OVCAR-4, 48 h, read-out: Activity
[19] = tested on: SK-OV-3; test: Growth inhibition of human SKOV3 cells assessed as cell growth at 10 uM incubated for 48 hrs by sulforhodamine B assay relative to control; type: functional; conditions: SK-OV-3, 48 h, read-out: Activity
[20] = tested on: TK-10; test: Growth inhibition of human TK10 cells assessed as cell growth at 10 uM incubated for 48 hrs by sulforhodamine B assay relative to control; type: functional; conditions: TK-10, 48 h, read-out: Activity
[21] = tested on: UO-31; test: Growth inhibition of human UO31 cells assessed as cell growth at 10 uM incubated for 48 hrs by sulforhodamine B assay relative to control; type: functional; conditions: UO-31, 48 h, read-out: Activity
[22] = tested on: PC-3; test: Growth inhibition of human PC3 cells assessed as cell growth at 10 uM incubated for 48 hrs by sulforhodamine B assay relative to control; type: functional; conditions: PC-3, 48 h, read-out: Activity
[23] = tested on: MCF7; test: Growth inhibition of human MCF7 cells assessed as cell growth at 10 uM incubated for 48 hrs by sulforhodamine B assay relative to control; type: functional; conditions: MCF7, 48 h, read-out: Activity
[24] = tested on: MDA-MB-231; test: Growth inhibition of human MDA-MB-231 cells assessed as cell growth at 10 uM incubated for 48 hrs by sulforhodamine B assay relative to control; type: functional; conditions: MDA-MB-231, 48 h, read-out: Activity
[25] = tested on: T47D; test: Growth inhibition of human T47D cells assessed as cell growth at 10 uM incubated for 48 hrs by sulforhodamine B assay relative to control; type: functional; conditions: read-out: Activity
[26] = tested on: MDA-MB-468; test: Growth inhibition of human MDA-MB-468 cells assessed as cell growth at 10 uM incubated for 48 hrs by sulforhodamine B assay relative to control; type: functional; conditions: MDA-MB-468, 48 h, read-out: Activity
[27] = tested on: UACC-257; test: Growth inhibition of human UACC257 cells assessed as cell growth at 10 uM incubated for 48 hrs by sulforhodamine B assay relative to control; type: functional; conditions: UACC-257, 48 h, read-out: Activity
[28] = tested on: IGROV-1; test: Growth inhibition of human IGROV1 cells assessed as cell growth at 10 uM incubated for 48 hrs by sulforhodamine B assay relative to control; type: functional; conditions: IGROV-1, 48 h, read-out: Activity
[29] = tested on: U-937; test: Cytotoxicity against human U937 cells after 72 hrs by MTT assay; type: functional; conditions: U-937, 72 h, read-out: LC50 (the source's name)
[30] = tested on: Plasmodium falciparum; test: Antimalarial activity against chloroquine-sensitive Plasmodium falciparum 3D7 incubated for 48 hrs by malstat reagent based LDH release assay; type: functional, organism-based; conditions: 3D7, 48 h
[31] = tested on: Trypanosoma cruzi; test: Antitrypanosomal activity against Trypanosoma cruzi Tulahuen amastigote forms infected in human U937 cells after 72 hrs by beta-galactosidase reporter gene assay; type: functional, organism-based; conditions: U-937, 72 h
[32] = tested on: Leishmania panamensis; test: Antileishmanial activity against EpiR/GFP fused Leishmania panamensis MHOM/CO/87/UA140 intracellular amastigotes infected in human […] cells after 72 hrs by flow cytometric method; type: functional, organism-based; conditions: MHOM/CO/87/UA140, 72 h
[33] = tested on: MOLT-4; test: Growth inhibition of human MOLT4 cells assessed as cell growth at 10 uM incubated for 48 hrs by sulforhodamine B assay relative to control; type: functional; conditions: MOLT-4, 48 h, read-out: Activity

SMILES	growth at 10 µM [3] [%]	growth at 10 µM [4] [%]	growth at 10 µM [5] [%]	growth at 10 µM [6] [%]	growth at 10 µM [7] [%]	growth at 10 µM [8] [%]	growth at 10 µM [9] [%]	growth at 10 µM [10] [%]	growth at 10 µM [11] [%]	growth at 10 µM [12] [%]	growth at 10 µM [13] [%]	growth at 10 µM [14] [%]	growth at 10 µM [15] [%]	growth at 10 µM [16] [%]	growth at 10 µM [17] [%]	growth at 10 µM [18] [%]	growth at 10 µM [19] [%]	growth at 10 µM [20] [%]	growth at 10 µM [21] [%]	growth at 10 µM [22] [%]	also measured
COc1cccc2c1C(=O)c1c(O)c3c(c(O)c1C2=O)C[C@@](O)(C(=O)CO)C[C@@H]3O[C@H]1C[C@H](N)[C@H](O)[C@H](C)O1 [DOXORUBICIN]																					GI50 [1]: 210 nM; CC50 [1]: 15.9 µM; GI50 [2]: 0.41 µM; CC50 [2]: 100 µM
Cc1cccc2cc(C3CNC(=O)c4ccccc4N3)c(=O)[nH]c12 (stereo unspecified)	116	118	110	91.7	98.4	102	98.8	94.9	114	96	98.4	106	102	106	104	92.1	96.9	94.6	92.8	89.1	growth at 10 µM [23]: 98.8%; growth at 10 µM [24]: 110%; growth at 10 µM [25]: 93.1%; growth at 10 µM [26]: 107%; growth at 10 µM [27]: 100%; growth at 10 µM [28]: 106%
CCCCOc1nc2ccccc2cc1C1CNC(=O)c2ccccc2N1 (stereo unspecified)	-8.72	12.8	19.8	19.9	33	15.3	-5.68	-25.5	33.4	45.6	-23.1	-63.8	45.8	32.6	-9.73	47.7	14.8	34.3	41.3	24.7	growth at 10 µM [23]: 21.2%; growth at 10 µM [24]: 47.5%; growth at 10 µM [25]: 20.9%; growth at 10 µM [26]: -1.81%; growth at 10 µM [27]: 57.2%; growth at 10 µM [28]: 38%; GI50 [1]: 4790 nM; TGI [1]: 48.5 µM; CC50 [1]: > 100 µM; GI50 [2]: 6.42 µM; TGI [2]: 41 µM; CC50 [2]: > 100 µM
O=C1NCC(c2cc3ccc(Cl)cc3[nH]c2=O)Nc2ccccc21 (stereo unspecified)	111	124	115	73.9	95.2	103	107	95	108	93.4	96.8	104	105	106	109	94	77.8	83	88.7	87.1	growth at 10 µM [23]: 97.4%; growth at 10 µM [24]: 118%; growth at 10 µM [25]: 66.5%; growth at 10 µM [26]: 96.5%; growth at 10 µM [27]: 78.4%; growth at 10 µM [28]: 96.5%; CC50 [29]: > 200 µg/mL; EC50 [30]: 59.3 µg/mL (≈ 175 µM); EC50 [31]: 86 µg/mL (≈ 253 µM); EC50 [32]: 77.9 µg/mL (≈ 229 µM)
Cc1ccc2[nH]c(=O)c(C3CNC(=O)c4ccccc4N3)cc2c1 (stereo unspecified)	107	111	133	95.7	102	105	103	96.5	99.3	109	103	108	108	98.4	107	108	110	104	84.3	98.5	growth at 10 µM [33]: 113%; growth at 10 µM [23]: 102%; growth at 10 µM [24]: 114%; growth at 10 µM [25]: 116%; growth at 10 µM [26]: 110%; CC50 [29]: 52.8 µg/mL (≈ 165 µM); EC50 [30]: 60.9 µg/mL (≈ 191 µM); EC50 [31]: 46.3 µg/mL (≈ 145 µM); EC50 [32]: 22.9 µg/mL (≈ 71.8 µM)
